According to paper PMC7730205, “Different Sensitivity of Control and MICU1- and MICU2-Ablated Trypanosoma cruzi Mitochondrial Calcium Uniporter Complex to Ruthenium-Based Inhibitors” (International Journal of Molecular Sciences, 2020):

Key:
[1] = test system: T. cruzi epimastigotes (control, TcMICU1-KO, TcMICU2-KO); assay: Mitochondrial membrane potential of digitonin-permeabilized epimastigotes (safranine O); assay type: cell-based, Trypanosoma cruzi; details: TcMICU1-KO or TcMICU2-KO cells, succinate
From the text: To determine whether the defect in mitochondrial Ca^2+ uptake in the presence of inhibitors was not secondary to mitochondrial membrane depolarization, we measured the mitochondrial membrane potential (Δψm) of digitonin-permeabilized epimastigotes using safranine O in the presence of succinate as mitochondrial substrate.
Figure 3 Effect of inhibitors on the mitochondrial membrane potential of epimastigotes. Changes in mitochondrial membrane potential (Δψm) of digitonin-permeabilized epimastigotes as detected by changes in safranine O fluorescence in control (a), TcMICU1-KO (b), and TcMICU2-KO (c) epimastigotes in the absence or presence of inhibitors. Cells (5 × 10^7) were added to the reaction buffer (2 mL) containing 0.2% BSA, 5 mM succinate, 50 μM EGTA and 5 μM safranine O. The reaction was started with 50 μM digitonin (DIG) in the presence or absence of the inhibitor, and 250 μM ADP, 1.5 μM carboxyatractyloside (CAT), 50 μM CaCl2 (Ca^2+), 200 μM EGTA, and 4 μM FCCP were added when indicated. A decrease in fluorescence after permeabilization with digitonin indicated the accumulation of the dye in energized mitochondria. The addition of ADP produced a small dissipation of membrane potential, indicating ADP phosphorylation. Δψm returned to its initial level after the addition of the adenine nucleotide translocator inhibitor CAT. The addition of FCCP collapsed the membrane potential. (d) Changes in safranine O fluorescence after digitonin addition (between 30 and 60 s) in control (C), TcMICU1-KO and TcMICU2-KO epimastigotes. […] Changes in safranine O fluorescence in control (C) (e), TcMICU1-KO (1-KO) (f), and TcMICU2-KO (2-KO) (g) epimastigotes after addition of ADP from three experiments like that shown in panels (a–c).
Estimation of mitochondrial membrane potential in situ was done spectrofluorometrically using the indicator dye safranine O, as described previously. […] Fluorescence changes were monitored using the Hitachi F-7000 spectrofluorometer (excitation of 495 nm and emission of 586 nm).

T. cruzi epimastigotes = assay: Cellular respiration of epimastigotes (high-resolution respirometry); assay type: cell-based, Trypanosoma cruzi
Description: Figure 4 Effect of Ru265 on Trypanosoma cruzi. (a) Effect of Ru265 on epimastigote growth. Growth of control epimastigotes in LIT medium in the presence of 1 μM, 5 μM, and 10 μM Ru265. (b) Effect of Ru265 on trypomastigote attachment. Trypomastigotes were pretreated for 30 min with 1 μM antimycin A (AA) or 10 μM Ru265 and added to glutaraldehyde-fixed Vero cells. After 1 h of incubation at 37 °C, the cells were washed, and the number of attached trypomastigotes was counted. […] (c) Effect of Ru265 on trypomastigotes infection. Trypomastigotes were pretreated for 30 min with 1 μM antimycin A or 10 μM Ru265 and added to Vero cells. After 4 h of incubation at 37 °C, the cells were washed, and the number of intracellular parasites was counted. […] (f) Routine respiration (initial oxygen flux values), leak respiration after the addition of 0.5 µg/mL of oligomycin A, and electron transfer system (ETS) capacity after the sequential additions of FCCP (0.2 μM each) were measured for each condition. […] (g) Representative experiment showing mitochondrial Ca^2+ uptake by intact epimastigotes in relative fluorescence units (RFU). […] (h) Changes in fluorescence (before and after ionomycin addition) from three experiments like that shown in panel (g). […]

**Q.** How did the “Effect on mitochondrial membrane potential (Δψm) and response to ADP” value [1] turn out when `N.N.N.N.N.N.N.N.[Cl][Ru+3].[N-]=[Ru][Cl]` [Ru265] was run?
**A.** The value was “did not significantly affect”.

**Q.** What about the “Uncoupled respiratory control rate (state 3u / rate with oligomycin)” value (T. cruzi epimastigotes; 10 µM Ru265, n = 3) of the same compound?
**A.** Its value is 1.70 ± 0.04.

**Q.** What about the “Effect on O2 consumption level” value (T. cruzi epimastigotes; control epimastigotes, 10 µM Ru265, compared with parasites without inhibitor) of the same compound?
**A.** The value was “did not affect O2 consumption level”.
